# Data from publication PMC6410416 (Marine Drugs, 2019).
# Target: T1, Ps-Mn-SOD (Paelopatides sp. YL-2018, UniProt A0A411L1L4)
# T1 construct: ORF 255 residues, signal peptide deleted; 6xHis tag (pCold II), E. coli pG-KJE8/BL21, Ni-NTA; about 30 kDa subunit, dimer about 60 kDa; C-terminal peptide (from primer) PSKHEEL
# T1 sequence (A0A411L1L4 22-255): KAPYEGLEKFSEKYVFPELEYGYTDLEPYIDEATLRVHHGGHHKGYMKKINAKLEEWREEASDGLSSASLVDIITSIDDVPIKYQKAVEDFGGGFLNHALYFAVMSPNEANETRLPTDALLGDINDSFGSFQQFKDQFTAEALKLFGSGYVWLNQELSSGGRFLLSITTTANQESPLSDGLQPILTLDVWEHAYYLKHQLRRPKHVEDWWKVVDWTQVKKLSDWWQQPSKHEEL
# Assay: SOD assay kit, inhibition of chromogen production at […] nm
# Format: biochemical
# Conditions: superoxide generated in situ; turnover only
smiles,measurement,value
[O]O [superoxide],"SOD assay kit, inhibition of chromogen production at 550 nm",SOD activity was determined via spectrophotometric method using the SOD assay kit
